Drawing on ChEMBL document CHEMBL5543059, “Discovery of anti-inflammatory natural flavonoids: Diverse scaffolds and promising leads for drug discovery” (Eur J Med Chem, 2023), this text covers Activity, IC50 and inhibition for eleven molecules.

The subject of assay [1] is Mus musculus. As to the kind of experiment: Analgesic activity against acetic acid-induced BALB/c writhing mouse model assessed as inhibition of writhing at 10 mg/kg, ip pre-incubated for 30 mins followed by acetic acid addition and measured after 15 mins relative to control. It counts as functional. The note with it: time 45 min, 0.75 h. The arrangement: scale not given: the % may be the effect or the level left.

The subject of assay [2] is Mus musculus. The assay is described as follows: Antiinflammatory activity in carrageenan-induced Kunming mouse model of paw edema assessed as paw volume at 1 mg/kg, ip pre-incubated for 1 hr followed by carrageenan administration measured for 60 mins relative to control. Format: functional. The note with it: time 2 hrs.
In assay [3] the test system is Neutrophil. The assay is described as follows: Inhibition of fMLF-induced chemotaxis in human neutrophils pretreated for 45 mins followed by fMLF-stimulation measured for 1 hr by luminescence based analysis. Format: functional, cell-based.
In assay [4] the test system is BV-2. As to the kind of experiment: Antineuroinflammatory activity in LPS-induced mouse BV-2 cells assessed as inhibition of NO production pre-incubated for 2 hr followed by LPS-stimulation measured for 24 hrs by Griess reagent based analysis. Format: functional, cell-based. Background: Griess reagent forms a coloured azo dye with nitrite.
Assay [5] concerns J774.A1. The assay is described as follows: Anti-inflammatory activity in mouse J774.A1 cells assessed as suppression of LPS-induced IL-6 production by ELISA analysis. Format: functional, cell-based.
Assay [6] is described as follows: Anti-inflammatory activity in LPS-stimulated human PBMC cells assessed as 5-lipoxygenase inhibition at 100 ug/ml relative to control. It counts as functional. The arrangement: scale not given: the % may be the effect or the level left. The note with it: dose 100 µg/ml.
In assay [7] the test system is RAW264.7. As to the kind of experiment: Inhibition of NF-kappaB activation in mouse RAW264.7 cells expressing luciferase gene at 100 microg/ml by luciferase reporter gene assay. The note with it: dose 100.0 µg/ml. It counts as cell-based. For orientation: In a reporter assay the amount or activity of a reporter protein is the signal.
A short description of assay [8]: Antioxidant activity assessed as DPPH radical scavenging activity at 100 microg/ml relative to control. Format: functional. The note with it: dose 100.0 µg/ml. On the technique in general: Loss of DPPH colour is used to gauge radical scavenging.
Assay [9] can be described thus: Anti-inflammatory activity in LPS-stimulated human PBMC cells assessed as COX-2 inhibition at 100 ug/ml relative to control. Format: functional. The arrangement: scale not given: the % may be the effect or the level left. The note with it: dose 100 µg/ml.
Assay [10] can be described thus: Anti-inflammatory activity in LPS-stimulated human PBMC cells assessed as inhibition of TNFalpha at 100 ug/ml relative to control. Format: functional. The arrangement: scale not given: the % may be the effect or the level left. The note with it: dose 100 µg/ml.
For assay [11], the system named is Neutrophil. As to the kind of experiment: Inhibition of fMLP-induced cell migration in human neutrophil. It counts as functional, cell-based.
Assay [12] relates to RAW264.7. The assay is described as follows: Anti-inflammatory activity in LPS-stimulated mouse RAW264.7 cells assessed as inhibition of NO production by Griess reagent based analysis. Format: functional, cell-based.
The test system of assay [13] is RAW264.7. The assay is described as follows: Anti-inflammatory activity in LPS-stimulated mouse RAW264.7 cells assessed as inhibition of NO production by Griess reagent based assay. It counts as functional, cell-based.
Assay [14] relates to BV-2. As to the kind of experiment: Antineuroinflammatory activity in LPS-induced mouse BV-2 cells assessed as inhibition of iNOS production at 50 uM pre-incubated for 2 hr followed by LPS-stimulation measured for 24 hrs by Western blot analysis. The arrangement: scale not given: the % may be the effect or the level left. The note with it: time 26 hrs. Format: functional.
Assay [15] deals with RAW264.7. The assay is described as follows: Antiinflammatory activity against mouse RAW264.7 cells assessed as inhibition of LPS-stimulated TNF-alpha level by ELISA method. Format: functional, cell-based.
Assay [16] concerns J774.A1. As to the kind of experiment: Antiinflammatory activity against mouse J774.A1 cells assessed as inhibition of LPS-stimulated TNF-alpha level by ELISA method. Format: functional, cell-based.
The test system of assay [17] is BV-2. As to the kind of experiment: Anti-inflammatory activity in mouse BV-2 cells assessed as inhibition of LPS-induced NO production preincubated with compound for 1 hrs followed by LPS stimulation and measured after 24 hrs by Griess reagent based assay. Format: functional, cell-based.
The test system of assay [18] is Neutrophil. The assay is described as follows: Inhibition of fMLF/CB-induced human Neutrophil activation assessed as reduction in elastase release using MeO-Suc-Ala-Ala-Pro-Val-pnitroanilide as substrate pre-incubated for 2 mins followed by fMLF/CB-stimulation and measured for 5 mins. Format: functional, cell-based.
Assay [19] concerns Neutrophil. As to the kind of experiment: Inhibition of fMLF/CB-induced human Neutrophil activation assessed as reduction in superoxide anion generation pre-incubated for 2 mins prior to CB induction for 3 mins followed by fMLF addition by spectrophotometric analysis. Format: functional, cell-based.
The target of assay [20] is T1, Inhibitor of nuclear factor kappa-B kinase subunit beta (Homo sapiens) (UniProt O14920).
T1 sequence (whole entry): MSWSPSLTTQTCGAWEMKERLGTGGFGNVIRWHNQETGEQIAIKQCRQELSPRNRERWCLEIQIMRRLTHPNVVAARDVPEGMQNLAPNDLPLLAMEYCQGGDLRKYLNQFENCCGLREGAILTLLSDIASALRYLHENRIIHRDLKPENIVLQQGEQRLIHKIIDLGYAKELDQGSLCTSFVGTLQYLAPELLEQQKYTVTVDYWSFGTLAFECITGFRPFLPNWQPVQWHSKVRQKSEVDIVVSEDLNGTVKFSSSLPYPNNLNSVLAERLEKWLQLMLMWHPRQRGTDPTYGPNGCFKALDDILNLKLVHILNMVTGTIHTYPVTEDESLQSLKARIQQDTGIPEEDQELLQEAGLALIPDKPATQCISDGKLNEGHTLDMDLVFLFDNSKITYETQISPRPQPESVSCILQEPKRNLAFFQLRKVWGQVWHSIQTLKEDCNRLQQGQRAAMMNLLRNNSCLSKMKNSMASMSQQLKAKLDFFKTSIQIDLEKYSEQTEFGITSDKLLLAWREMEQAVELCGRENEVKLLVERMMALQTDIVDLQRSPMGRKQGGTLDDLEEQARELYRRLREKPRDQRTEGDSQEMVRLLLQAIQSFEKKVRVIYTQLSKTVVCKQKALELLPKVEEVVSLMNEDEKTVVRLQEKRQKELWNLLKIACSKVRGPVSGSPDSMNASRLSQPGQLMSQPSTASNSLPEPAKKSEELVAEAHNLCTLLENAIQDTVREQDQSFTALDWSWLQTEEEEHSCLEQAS
As to the kind of experiment: Inhibition of IKKbeta phosphorylation in high glucose-induced HUVEC cells at 10 uM relative to control. It counts as cell-based.

Assay [21] has as its system Rat aortic endothelial cell. The assay is described as follows: Inhibition of NF-kappaB p65 phosphorylation in high glucose-induced Rat aortic endothelial cell at 1 uM relative to control. Format: cell-based.
For assay [22], the system named is Rat aortic endothelial cell. As to the kind of experiment: Inhibition of NF-kappaB p65 phosphorylation in high glucose-induced Rat aortic endothelial cell at 10 uM relative to control. It counts as cell-based.
Assay [23] concerns Rat aortic endothelial cell. As to the kind of experiment: Inhibition of NF-kappaB p65 phosphorylation in high glucose-induced Rat aortic endothelial cell at 0.1 uM relative to control. Format: cell-based.
For assay [24], the target named is T1, Inhibitor of nuclear factor kappa-B kinase subunit beta (Homo sapiens). The assay is described as follows: Inhibition of IKKbeta phosphorylation in high glucose-induced HUVEC cells at 1 uM relative to control. Format: cell-based.
Assay [25] shares this target. As to the kind of experiment: Inhibition of IKKbeta phosphorylation in high glucose-induced HUVEC cells at 0.1 uM relative to control. Format: cell-based.

As usually defined, the IC50 is the concentration at which inhibition is half-maximal. What is called inhibition is the relative decrease from the control value, in per cent.

Where only a bound is given, the exact number is not on record here.

With `O=c1cc(-c2ccccc2)oc2cc(O)cc(O)c12` [CHRYSIN], the values for the Activity in the assay on Mus musculus [1] and with Mus musculus [2] were 56% and 25%, respectively. Moreover, the IC50 in the assay on Neutrophil [3] worked out at 2.25 µM.

For `CC(C)(O)CCc1c(O)ccc(C(=O)/C=C/c2ccc3c(c2)C[C@@H](C(C)(C)O)O3)c1O`, the IC50 in the assay on BV-2 [4] came out at 3.25 µM.

For `CC(C)(O)c1ccccc1CC[C@@H](SCC1(CC(=O)O)CC1)c1cccc(/C=C/c2ccc3ccc(Cl)cc3n2)c1` [MONTELUKAST], in the assay with J774.A1 [5], the IC50 turned out to be 8.7 µM.

`COc1cc(-c2cc(=O)c3c(O)cc(O)cc3o2)cc(O)c1OC`: the Activity in assay [6] was found to be 98.4%; in assay [8], 40%; in [9] it was 83.3%; in [10] it was 86.1%. In the assay on RAW264.7 [7], this molecule came in with an inhibition of 23.1%.

For the molecule `COc1cc(O)c2c(=O)cc(-c3ccccc3)oc2c1` [TECHTOCHRYSIN], in the assay with Neutrophil [11], the IC50 stood at 1.77 µM.

For the molecule `COc1cc(-c2cc(=O)c3c(O)cc(O)cc3o2)cc(OC)c1O` [TRICIN], the figures for the IC50 with RAW264.7 [12] and with RAW264.7 [13] were 28 µM and 46.4 µM, respectively.

As to `COc1ccc(-c2cc(=O)c3c(OC)c(OC)c(OC)c(OC)c3o2)cc1OC` [NOBILETIN], the Activity in the assay on BV-2 [14] is 71.2%.

For `COc1cc(O)c2c(c1CC=C(C)C)OC(c1ccccc1)CC2=O` (stereo unspecified), the IC50 worked out at 41.2 µM in the assay on RAW264.7 [15] and 35.5 µM in the assay on J774.A1 [16].

In the case of `COc1cc(O)c2c(=O)c(OC)c(-c3ccc(OC)c(O)c3)oc2c1` [AYANIN], the concentration for half-maximal inhibition (IC50) in the assay with J774.A1 [5] stood at 17.8 µM; in the assay on BV-2 [17], 25.1 µM.

Consider `COc1cc(O)c2c(=O)cc(-c3ccc(O)c(OC)c3)oc2c1` [VELUTIN], for which the half-inhibitory concentration (IC50) in the assay with Neutrophil [18] was ≤ 15.2 µM; in the assay on Neutrophil [19], ≤ 12.5 µM.

As for `COc1c(O)cc2oc(-c3ccc(O)cc3)cc(=O)c2c1O`, the inhibition is 88.4% in [20]; 57.4% in assay [21]; 93.2% in [22]; 26.1% in [23]; 53.6% in [24]; 23.2% in [25].
